In this assay the target is T1, TLR9 (Mus musculus, UniProt Q9EQU3).
T1 construct: from tissue; host or cells: whole animal: C57BL/6, FVB and FVB GADD34ΔC/ΔC mice
T1 sequence (Q9EQU3 26-1032): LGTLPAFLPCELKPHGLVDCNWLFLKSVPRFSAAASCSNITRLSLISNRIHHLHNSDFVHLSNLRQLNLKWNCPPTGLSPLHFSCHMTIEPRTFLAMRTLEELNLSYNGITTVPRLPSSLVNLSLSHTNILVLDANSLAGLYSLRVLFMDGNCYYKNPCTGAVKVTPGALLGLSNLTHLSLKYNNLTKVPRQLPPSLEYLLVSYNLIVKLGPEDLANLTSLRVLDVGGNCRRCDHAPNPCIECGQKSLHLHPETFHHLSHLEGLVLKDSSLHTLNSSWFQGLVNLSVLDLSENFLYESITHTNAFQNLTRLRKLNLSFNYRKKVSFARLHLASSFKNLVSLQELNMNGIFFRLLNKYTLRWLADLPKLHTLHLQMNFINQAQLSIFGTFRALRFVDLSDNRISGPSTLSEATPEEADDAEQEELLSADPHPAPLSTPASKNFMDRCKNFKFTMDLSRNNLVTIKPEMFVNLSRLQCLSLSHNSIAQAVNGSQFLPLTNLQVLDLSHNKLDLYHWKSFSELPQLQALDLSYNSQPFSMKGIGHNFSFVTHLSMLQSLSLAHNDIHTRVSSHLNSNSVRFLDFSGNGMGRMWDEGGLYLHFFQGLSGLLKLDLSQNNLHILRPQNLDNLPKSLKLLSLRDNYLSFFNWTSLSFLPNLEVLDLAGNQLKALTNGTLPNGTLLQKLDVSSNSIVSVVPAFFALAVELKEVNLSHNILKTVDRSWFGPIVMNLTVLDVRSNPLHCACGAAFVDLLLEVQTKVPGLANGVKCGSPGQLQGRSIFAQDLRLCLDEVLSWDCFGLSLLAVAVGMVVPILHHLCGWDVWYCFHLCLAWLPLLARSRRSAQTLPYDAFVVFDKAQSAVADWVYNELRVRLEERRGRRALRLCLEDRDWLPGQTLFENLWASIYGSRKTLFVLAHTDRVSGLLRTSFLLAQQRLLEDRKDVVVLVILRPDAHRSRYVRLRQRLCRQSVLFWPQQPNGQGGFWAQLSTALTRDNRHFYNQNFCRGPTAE
Kind of assay: D-galN/CpG ODN 1826 cytokine shock model. The class given is in vivo. The procedure:
WT and GADD34^ΔC/ΔC mice were injected with D-galN (20 mg/mouse), CpG ODN 1826 or PBS for control mice (50 μg/20 g), GBZ or clonidine (2 mg/kg). (A) Survival of C57/BL6 mice is represented as total percentage of survival after 48 h or in a Kaplan-Meier plot. (B) Survival of FVB (WT) and FVB GADD34^ΔC/ΔC mice is represented as total percentage of survival after 48 h or in a Kaplan-Meier plot. (C) The concentration of circulating TNF-α, IL-10 and IL-6 in C57/BL6 mice was measured after 1 h and/or 3 h of CpG ODN 1826. (D) Liver tissue damage and histology score were blindly determined by a professional anatomopathologist. Statistical significance was assigned on sample comparison by a one-way ANOVA, followed by Tukey range test and on the survival curve using log-rank test, followed by Benjamini-Yekutieli correction (* p<0.05; ** p<0.005; ***p<0.0005.).
Wild type female mice C57BL/6 of 8 weeks of age were injected i.p. with 2 mg/kg of GBZ, clonidine or PBS/DMSO. One hour later, they were injected i.p. with 20 mg/mouse of d-GalN and ODN 1826 50 μg/20 g (or PBS). Mice survival was checked every 12 hours for up to 48 hours. For some experiments, blood sera were collected 1 and 3 h after the injection of D-galN. The serum was used to measure circulating cytokines (TNFα, IL-6, IFNβ IL-10, IL-12). For some experiments, the liver was collected for immunohistochemistry after two days. For i.p. injections, 1 ml syringes and 25 gauge needles were used. Blood was collected from the cheek with a 18 gauge needle; for the TMPD model, no more than 200 μL were collected each time, respecting the ethic statement.
Mouse kidney and liver were fixed in 10% buffered formalin for 24 h, then the tissues were dehydrated and embedded in paraffin. Tissue sections of 3.5 μm were cut using the microtom Leica RM2245. Hematoxylin-eosin staining was effectuated automatically with Leica autostainer XL. Finally, the slides were mounted with entellan and kept at room temperature. Biopsies were analyzed by an anatomopathologist and the clinical score was assigned in a blinded way. Pictures were taken with Nikon Eclipse.
• a) Lobular inflammation • 0—no inflammation, 1—mild lobular inflammation (<10% of liver parenchyma), 2—moderate lobular inflammation (10-50% of liver parenchyma), 3—severe lobular inflammation (>50% of liver parenchyma) • b) Portal inflammation • 0—no portal inflammation, 1—mild portal inflammation (<⅓ of portal tracts), 2—moderate portal inflammation (approximately 50% of portal tracks), 3—severe portal inflammation (>⅔ of portal tracts) • Portal and lobular inflammation score are added=inflammation score • c) Necrosis • 0—No necrosis, 1—<10% necrosis of liver parenchyma, 2—10-25% necrosis of liver parenchyma, 3—25% necrosis of liver parenchyma • Inflammation score and necrosis score are added=Total histologic score

Where [1] appears, read: WT mice, 1 hour after CpG injection, 2 mg/kg.
Where [2] appears, read: WT mice, 3 h after CpG injection, 2 mg/kg.

Molecules are shown by their SMILES.

Regarding `Clc1cccc(Cl)c1NC1=NCCN1` [clonidine, N-(2,6-dichlorophényl)-4,5-dihydro-1H-imidazol-2-amine], the “survival after 48 h” value (C57BL/6 WT mice, D-galN + CpG ODN 1826, compound 2 mg/kg i.p.) is “not substantially changed”. In addition, under setting [1], the “circulating IL-6 plasma concentration” value is recorded as “some inhibitory effect” and the “circulating TNF-α plasma concentration” value is on record as “some inhibitory effect”. Under setting [2], the “inhibitory effect on IL-6 production” value is “not observed” and the “inhibitory effect on TNF-α production” value is “not observed”.

The values above are taken from patent US20210177814A1, “USE OF GUANABENZ OR DERIVATES THEREOF FOR THE TREATMENT OF TYPE I IFN-DEPENDENT PATHOLOGIES” (INSERM (Institut National de la Santé et de la Recherche …, priority 2018, published 2021).
